Results taken from article PMC6713216, “Dual-target anti-Alzheimer’s disease agents with both iron ion chelating and monoamine oxidase-B inhibitory activity” (Journal of Enzyme Inhibition and Medicinal Chemistry, 2019).
Where two headings read alike, the source gives them in different places.

Key:
[1] = pKa determination by automatic spectrophotometric titration; format: physicochemical; details: DMSO/0.1 M KCl 2:3 (V/V) solution, DMSO:KCl (0.1 M) = 2:3 (V/V), 25 °C
Method: (§1) The automatic titration system used in the test consisted of an automatic titrator, a luminescence 759 s UV-Vis spectrophotometer, and a pH Meter (Mettler Toledo InLab Expert PRO/Mettler Toledo InLab Science). All instruments are controlled by a computer program.
(§2) The testing solution (2:3 DMSO/KCl (0.1 M), V/V) was maintained at 25 °C using a TP-3A temperature controller. The cuvette is mounted on a spectrophotometer. The E0 and s of the pH Meter were calibrated by three standard solutions (pH = 6.86, 9.18, 4.00). KCl solution (0.1 M) was used to maintain the ionic strength. For the Fe(III) affinity evaluation, the ratio of compounds to iron ion was kept at 1.1:1 (n/n) when Logβ1 was measured; the ratio of compounds to iron ion was kept at 5:1 (n/n) when Logβ2 and Logβ3 were tested.
The titration was performed in a 50 mm path length cuvette. 45 ml KCl (0.1 M) solution, 40 μL of saturated EDTA solution were added to the cuvette. The pH value of the solution was acidified to 2.0 with hydrochloric acid (1.5 M). Then 20 μL of test compound DMSO solution (30 μM/L) was added and stirred vigorously. By adding KOH solution (0.1 M) from the automatic buret, the pH value of the solution was increased by 0.1. […] Adding KOH solution (0.1 M) and repeated the automatic process until the specified endpoint of pH value was reached. All data were recorded internally by the Visual Basic program, and the test results are analysed by the HypSpec2014 program.

[2] = Calculation of pFe3+ by HySS software from pKa and logβ values; format: physicochemical; details: DMSO:KCl (0.1 M) = 2:3 (V/V); calculated by HySS from pKa1, pKa2, logβ1-3
Method: The values of pFe^3+ were calculated by HySS software according to the results of pKa1, pKa2, logβ1, logβ2, and logβ3 determined by the above methods. The basic parameters were set as follows: FeOH = –2.563, Fe(OH)2 = –6.205, Fe(OH)3 = –15.1, Fe2(OH)2 = –2.843, Fe3(OH)4 = –6.059, Fe(OH)4 = –21.883[23].

[3] = Determination of iron(III) affinity (Logβ1, Logβ2, Logβ3) by spectrophotometric titration; format: physicochemical; details: DMSO:KCl (0.1 M) = 2:3 (V/V), 25 °C; for Logβ1: compound:iron 1.1:1; for Logβ2 / Logβ3: compound:iron 5:1
Method: as §1, §2
A 45 ml KCl (0.1 M) solution was added to the cuvette (50 mm) and the pH value was acidified to 2.1. Then 30 μM DMSO solution of the testing compound and 60 μL acidic solution of FeCl3 (15 mM) were added separately, and the mixture was vigorously stirred. After the absorbance value is stabilised, a certain amount of HCl solution (4 M) was added by the automatic buret to reduce the pH of the solution by 0.1. After the system was equilibrated, the spectral scan was performed once after 20 min. This protocol was repeated until the specified endpoint of the pH value was reached. All data was recorded with the internal Visual Basic program, HypSpec2014 program was utilised for the data analysis.
Similarly, 45 ml KCl (0.1 M) solution was added to the cuvette (50 mm) and the pH value was acidified to 2.1. Then 30 μM DMSO solution of the testing compound and 60 μL acidic solution of FeCl3 (15 mM) were added separately, and the mixture was vigorously stirred. After the absorbance value is stabilised, a certain amount of KOH solution (0.1 M) was added by the automatic buret to increase the pH of the solution by 0.1. After the system was equilibrated, the spectral scan was performed once after 5 min. This protocol was repeated until the specified endpoint of the pH value was reached. All data were recorded with the internal Visual Basic program, HypSpec2014 program was utilised for the data analysis[5]^,[21]^,[22].

Human MAO-B = biological target: T1, Human MAO-B (Homo sapiens, UniProt P27338); experiment: Determination of human MAO-B inhibitory activity (Monoamine Oxidase Assay Kit, fluorescence); format: biochemical; details: for inhibition at 1 µM: read-out: Inhibitory rate (%) 1 μM; for inhibition at 10 µM: compound at 10 μM, read-out: Inhibitory rate (%) 10 μM
T1 construct: purchased Sigma-Aldrich
T1 sequence (P27338 1-520): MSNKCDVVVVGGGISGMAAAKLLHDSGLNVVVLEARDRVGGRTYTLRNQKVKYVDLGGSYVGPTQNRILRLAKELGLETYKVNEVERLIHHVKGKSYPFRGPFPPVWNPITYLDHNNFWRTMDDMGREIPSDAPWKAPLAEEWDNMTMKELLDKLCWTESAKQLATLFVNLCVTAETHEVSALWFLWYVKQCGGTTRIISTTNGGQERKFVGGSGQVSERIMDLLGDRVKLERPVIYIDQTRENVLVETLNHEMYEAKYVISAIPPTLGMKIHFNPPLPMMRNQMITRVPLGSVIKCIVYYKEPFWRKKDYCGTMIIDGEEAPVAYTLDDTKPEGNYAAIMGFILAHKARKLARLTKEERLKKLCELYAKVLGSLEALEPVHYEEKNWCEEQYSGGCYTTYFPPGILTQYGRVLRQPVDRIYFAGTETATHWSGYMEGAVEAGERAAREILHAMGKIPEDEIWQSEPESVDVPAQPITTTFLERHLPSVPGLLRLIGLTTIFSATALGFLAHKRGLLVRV
Method: Human MAO-B (5 mg/mL) was purchased from Sigma-Aldrich and was pre-aliquoted and stored at -70 °C. 200 μL enzymatic reactions were diluted in 2 ml microcentrifuge tubes by potassium phosphate buffer (Assay Buffer, pH 7.4) which have been provided by Sigma-Aldrich Monoamine Oxidase Assay Kit. The final volumes of the reactions were 100 μL and contained 45 μL MAO-B (0.0075 mg/mL), included 5 μL different concentrations of the testing inhibitors (10 μM, 1 μM), and 50 μL Master Reaction, p-Tyramine, HRP Enzyme and Dye Reagent. Stock solutions of the compounds were prepared in DMSO.

[4] = pKa determination by automatic spectrophotometric titration; format: physicochemical; details: 0.1 M KCl solution, Figure 2; 0.1 M KCl at 25 °C; read-out: pKa1 (Figure 2, printed as pH at curve crossing)

pKa ([1]; read-out: pKa1) | pKa ([1]; read-out: pKa2) | inhibition at 1 µM (Human MAO-B; compound at 1 μM) [%] | inhibition at 10 µM (Human MAO-B) [%] | melting point [°C] | pKa [4] | Inhibitory rate (%) 1 μM (Human MAO-B; compound at 1 μM, 1 µM) [%] | Compound | pFe3+ [2] | Logβ1 [3] | Logβ2 [3] | Logβ3 [3] | IC50 (Human MAO-B) [nM]
3.2 | 9.8 | 1.23 | 95.7 |  |  |  | CCc1c(O)c(=O)ccn1CCCn1cc(COc2ccc3ccc(=O)oc3c2)nn1 [Compound 27e, 2-ethyl-3-hydroxy-1–(3-(4-(((2-oxo-2H-chromen-7-yl)oxy)methyl)-1H-1,2,3-triazol-1-yl)propyl)pyridin-4(1H)-one] | 17.1 | 14.7 | 26.0 | 33.2 | 
2.7 | 9.2 | > 20 | 96.2 | 212 to 215 |  |  | Cc1cc(=O)c(O)c(CO)n1CCn1cc(COc2ccc3ccc(=O)oc3c2)nn1 [Compound 27a, 3-hydroxy-2-(hydroxymethyl)-6-methyl-1–(2-(4-(((2-oxo-2H-chromen-7-yl)oxy)methyl)-1H-1,2,3-triazol-1-yl)ethyl)pyridin-4(1H)-one] | 18.9 | 13.8 | 24.0 | 33.7 | 
3.3 | 9.7 | 1.84 | 91 |  |  |  | Cc1cc(=O)c(O)c(C)n1CCn1cc(COc2ccc3ccc(=O)oc3c2)nn1 [Compound 27c, 3-hydroxy-2,6-dimethyl-1–(2-(4-(((2-oxo-2H-chromen-7-yl)oxy)methyl)-1H-1,2,3-triazol-1-yl)ethyl)pyridin-4(1H)-one] | 18.0 | 14.9 | 26.0 | 34.1 | 
3.3 | 9.1 | > 30 | 90.5 |  |  |  | Cc1cc(=O)c(O)c(CO)n1CCCn1cc(COc2cc3ccccc3oc2=O)nn1 [Compound 27k, 3-hydroxy-2-(hydroxymethyl)-6-methyl-1–(3-(4-(((2-oxo-2H-chromen-3-yl)oxy)methyl)-1H-1,2,3-triazol-1-yl)propyl)pyridin-4(1H)-one] | 18.4 | 13.6 | 24.5 | 33.0 | 
3.3 | 9.8 | 62 | 88.8 | 192 to 195 | 3.4 | 62.43 | CCc1c(O)c(=O)ccn1CCCn1cc(COc2cc3ccccc3oc2=O)nn1 [Compound 27j, 2-ethyl-3-hydroxy-1–(3-(4-(((2-oxo-2H-chromen-3-yl)oxy)methyl)-1H-1,2,3-triazol-1-yl)propyl)pyridin-4(1H)-one] | 17.1 | 14.6 | 25.7 | 33.5 | 860
3 | 9.1 | 13.2 | 85.7 | 142 to 148 |  |  | Cc1cc(=O)c(O)c(CO)n1CCn1cc(COc2cc(=O)oc3ccccc23)nn1 [Compound 27h, 3-hydroxy-2-(hydroxymethyl)-6-methyl-1–(2-(4-(((2-oxo-2H-chromen-4-yl)oxy)methyl)-1H-1,2,3-triazol-1-yl)ethyl)pyridin-4(1H)-one] | 18.7 | 13.3 | 24.8 | 33.2 | 
2.9 | 9.6 | > 30 | 94 | 258 to 261 |  |  | CCc1c(O)c(=O)ccn1CCn1cc(COc2cc3ccccc3oc2=O)nn1 [Compound 27i, 2-ethyl-3-hydroxy-1–(2-(4-(((2-oxo-2H-chromen-3-yl)oxy)methyl)-1H-1,2,3-triazol-1-yl)ethyl)pyridin-4(1H)-one] | 17.0 | 14.2 | 25.4 | 32.8 | 
3.4 | 9.8 | > 30 | 93.3 | 253 to 256 |  |  | CCc1c(O)c(=O)ccn1CCn1cc(COc2cc(=O)oc3ccccc23)nn1 [Compound 27f, 2-ethyl-3-hydroxy-1–(2-(4-(((2-oxo-2H-chromen-4-yl)oxy)methyl)-1H-1,2,3-triazol-1-yl)ethyl)pyridin-4(1H)-one] | 16.7 | 14.9 | 25.7 | 32.8 | 
3.4 | 10 | 9.67 | 98.3 | 263 to 265 |  |  | Cc1cc(=O)c(O)c(C)n1CCCn1cc(COc2ccc3ccc(=O)oc3c2)nn1 [Compound 27d, 3-hydroxy-2,6-dimethyl-1–(3-(4-(((2-oxo-2H-chromen-7-yl)oxy)methyl)-1H-1,2,3-triazol-1-yl)propyl)pyridin-4(1H)-one] | 17.6 | 14.9 | 26.3 | 34.8 | 
3.2 | 9.7 | > 20 | 89.5 | 195 to 198 |  |  | CCc1c(O)c(=O)ccn1CCCn1cc(COc2cc(=O)oc3ccccc23)nn1 [Compound 27g, 2-ethyl-3-hydroxy-1–(3-(4-(((2-oxo-2H-chromen-4-yl)oxy)methyl)-1H-1,2,3-triazol-1-yl)propyl)pyridin-4(1H)-one] | 17.1 | 14.6 | 25.6 | 33.1 | 

Compound | pKa ([1]; read-out: pKa1) | pKa ([1]; read-out: pKa2) | inhibition at 1 µM (Human MAO-B; compound at 1 μM) [%] | inhibition at 10 µM (Human MAO-B) [%] | melting point [°C] | pKa [4] | Inhibitory rate (%) 1 μM (Human MAO-B; compound at 1 μM, 1 µM) [%] | pFe3+ [2] | Logβ1 [3] | Logβ2 [3] | Logβ3 [3] | IC50 (Human MAO-B) [nM]
Cc1cc(=O)c(O)c(CO)n1CCCn1cc(COc2ccc3ccc(=O)oc3c2)nn1 [Compound 27b, 3-hydroxy-2-(hydroxymethyl)-6-methyl-1–(3-(4-(((2-oxo-2H-chromen-7-yl)oxy)methyl)-1H-1,2,3-triazol-1-yl)propyl)pyridin-4(1H)-one] | 2.8 | 8.8 |  |  |  |  |  | 19.8 | 12.9 | 25.5 | 33.5 | 680
